Test results as given in the NIST ThermoML archive (doi:10.1016/j.jct.2011.06.007).
± gives the expanded uncertainty stated by the source.

Test: activity coefficient (dimensionless); of the first substance listed, at infinite dilution; xn = mol fraction of the nth substance listed
Conditions: 101 kPa, Liquid, Chromatography, x1 = 0

Structure (SMILES)	activity coefficient (318.15 K)	activity coefficient (328.15 K)	activity coefficient (338.15 K)	activity coefficient (348.15 K)	activity coefficient (358.15 K)	activity coefficient (368.15 K)
CCCO [propan-1-ol] + CCCC[N+]1(C)CCCC1.N#C[B-](C#N)(C#N)C#N	1.5 ± 0.1	1.36 ± 0.09	1.27 ± 0.08	1.18 ± 0.08	1.1 ± 0.07	1.04 ± 0.07
CC(C)CC(C)(C)C [2,2,4-trimethylpentane] + CCCC[N+]1(C)CCCC1.N#C[B-](C#N)(C#N)C#N	27.5 ± 1.9	25.4 ± 1.7	23.5 ± 1.6	22.5 ± 1.5	20.9 ± 1.4	20 ± 1.4
C1CCOC1 [tetrahydrofuran] + CCCC[N+]1(C)CCCC1.N#C[B-](C#N)(C#N)C#N	0.61 ± 0.043	0.611 ± 0.043	0.639 ± 0.044	0.652 ± 0.045	0.661 ± 0.045	0.679 ± 0.046
CCCCCC [hexane] + CCCC[N+]1(C)CCCC1.N#C[B-](C#N)(C#N)C#N	16.4 ± 1.1	15.3 ± 1	14.3 ± 1	13.8 ± 0.9	12.9 ± 0.9	12.3 ± 0.8
Cc1ccc(C)cc1 [1,4-dimethylbenzene] + CCCC[N+]1(C)CCCC1.N#C[B-](C#N)(C#N)C#N	1.46 ± 0.1	1.49 ± 0.1	1.54 ± 0.1	1.58 ± 0.1	1.59 ± 0.11	1.62 ± 0.11
CO [methanol] + CCCC[N+]1(C)CCCC1.N#C[B-](C#N)(C#N)C#N	0.991 ± 0.062	0.912 ± 0.058	0.861 ± 0.055	0.812 ± 0.053	0.753 ± 0.05	0.723 ± 0.048
C=CCCCC [hex-1-ene] + CCCC[N+]1(C)CCCC1.N#C[B-](C#N)(C#N)C#N	7.68 ± 0.52	7.31 ± 0.5	7.16 ± 0.49	7.03 ± 0.48	6.57 ± 0.45	6.57 ± 0.45
CCC(C)(C)C [2,2-dimethylbutane] + CCCC[N+]1(C)CCCC1.N#C[B-](C#N)(C#N)C#N	15.7 ± 1.1	14 ± 1	13.2 ± 0.9	12.9 ± 0.9	12.1 ± 0.8	11.2 ± 0.8
C=CCCC [1-pentene] + CCCC[N+]1(C)CCCC1.N#C[B-](C#N)(C#N)C#N	5.58 ± 0.38	5.32 ± 0.36	5.3 ± 0.36	5.24 ± 0.36	5.01 ± 0.34	5.02 ± 0.34
CC(C)=O [acetone] + CCCC[N+]1(C)CCCC1.N#C[B-](C#N)(C#N)C#N	0.439 ± 0.035	0.441 ± 0.035	0.454 ± 0.036	0.464 ± 0.036	0.468 ± 0.037	0.485 ± 0.037
C#CCCCCCC [1-octyne] + CCCC[N+]1(C)CCCC1.N#C[B-](C#N)(C#N)C#N	4.93 ± 0.34	4.9 ± 0.33	4.88 ± 0.33	4.85 ± 0.33	4.81 ± 0.33	4.78 ± 0.33
C=CCCCCCC [oct-1-ene] + CCCC[N+]1(C)CCCC1.N#C[B-](C#N)(C#N)C#N	15.4 ± 1.1	14.6 ± 1	14.1 ± 1	13.4 ± 0.9	12.6 ± 0.9	12.5 ± 0.9
c1ccccc1 [benzene] + CCCC[N+]1(C)CCCC1.N#C[B-](C#N)(C#N)C#N	0.81 ± 0.052	0.816 ± 0.053	0.836 ± 0.054	0.855 ± 0.055	0.87 ± 0.056	0.887 ± 0.056
CCCCCCCCCC [decane] + CCCC[N+]1(C)CCCC1.N#C[B-](C#N)(C#N)C#N	65.7 ± 4.5	59.5 ± 4.1	53.8 ± 3.7	50.4 ± 3.5	44.9 ± 3.1	42.1 ± 2.9
CC1CCCCC1 [methylcyclohexane] + CCCC[N+]1(C)CCCC1.N#C[B-](C#N)(C#N)C#N	11.9 ± 0.8	11 ± 0.8	10.5 ± 0.7	10.1 ± 0.7	9.38 ± 0.64	8.94 ± 0.61
C1=CCCCC1 [cyclohexene] + CCCC[N+]1(C)CCCC1.N#C[B-](C#N)(C#N)C#N	4.09 ± 0.28	3.97 ± 0.27	3.93 ± 0.27	3.88 ± 0.26	3.73 ± 0.25	3.71 ± 0.25
CCCCCCCC [octane] + CCCC[N+]1(C)CCCC1.N#C[B-](C#N)(C#N)C#N	32.6 ± 2.2	30.2 ± 2.1	27.5 ± 1.9	26.2 ± 1.8	23.8 ± 1.6	22.5 ± 1.5
CCc1ccccc1 [ethylbenzene] + CCCC[N+]1(C)CCCC1.N#C[B-](C#N)(C#N)C#N	1.56 ± 0.1	1.58 ± 0.1	1.6 ± 0.11	1.64 ± 0.11	1.66 ± 0.11	1.69 ± 0.11

Structure (SMILES)	activity coefficient (318.15 K)	activity coefficient (328.15 K)	activity coefficient (338.15 K)	activity coefficient (348.15 K)	activity coefficient (358.15 K)	activity coefficient (368.15 K)
CCOCC [diethyl ether] + CCCC[N+]1(C)CCCC1.N#C[B-](C#N)(C#N)C#N	2.32 ± 0.16	2.33 ± 0.16	2.34 ± 0.16	2.36 ± 0.16	2.37 ± 0.16	2.39 ± 0.16
CCCCO [butan-1-ol] + CCCC[N+]1(C)CCCC1.N#C[B-](C#N)(C#N)C#N	1.88 ± 0.13	1.67 ± 0.11	1.55 ± 0.1	1.44 ± 0.09	1.33 ± 0.09	1.23 ± 0.08
C=CCCCCCCCC [1-decene] + CCCC[N+]1(C)CCCC1.N#C[B-](C#N)(C#N)C#N	29.7 ± 2	28.3 ± 1.9	27.1 ± 1.9	26.1 ± 1.8	23.5 ± 1.6	22.8 ± 1.6
O [water] + CCCC[N+]1(C)CCCC1.N#C[B-](C#N)(C#N)C#N	2.15 ± 0.15	1.87 ± 0.13	1.73 ± 0.12	1.58 ± 0.1	1.39 ± 0.09	1.28 ± 0.08
CCC(C)CC [3-methylpentane] + CCCC[N+]1(C)CCCC1.N#C[B-](C#N)(C#N)C#N	14.9 ± 1	13.8 ± 0.9	13 ± 0.9	12.6 ± 0.9	11.8 ± 0.8	11.2 ± 0.8
CCCCCCC [heptane] + CCCC[N+]1(C)CCCC1.N#C[B-](C#N)(C#N)C#N	23 ± 1.6	21.5 ± 1.5	19.8 ± 1.4	19 ± 1.3	17.5 ± 1.2	16.6 ± 1.1
CCC(=O)CC [pentan-3-one] + CCCC[N+]1(C)CCCC1.N#C[B-](C#N)(C#N)C#N	0.65 ± 0.044	0.664 ± 0.045	0.688 ± 0.046	0.71 ± 0.047	0.719 ± 0.048	0.732 ± 0.048
C#CCCCCC [1-heptyne] + CCCC[N+]1(C)CCCC1.N#C[B-](C#N)(C#N)C#N	3.49 ± 0.24	3.5 ± 0.24	3.51 ± 0.24	3.53 ± 0.24	3.54 ± 0.24	3.56 ± 0.24
CCCCCCCCC [nonane] + CCCC[N+]1(C)CCCC1.N#C[B-](C#N)(C#N)C#N	46.2 ± 3.2	42.5 ± 2.9	38.2 ± 2.6	36.3 ± 2.5	32.6 ± 2.2	30.3 ± 2.1
Cc1ccccc1 [toluene] + CCCC[N+]1(C)CCCC1.N#C[B-](C#N)(C#N)C#N	1.09 ± 0.07	1.11 ± 0.07	1.14 ± 0.07	1.16 ± 0.07	1.18 ± 0.08	1.2 ± 0.08
C1CCCCC1 [cyclohexane] + CCCC[N+]1(C)CCCC1.N#C[B-](C#N)(C#N)C#N	8.42 ± 0.57	7.8 ± 0.53	7.45 ± 0.51	7.23 ± 0.49	6.75 ± 0.46	6.47 ± 0.44
CCCC(C)=O [pentan-2-one] + CCCC[N+]1(C)CCCC1.N#C[B-](C#N)(C#N)C#N	0.692 ± 0.047	0.701 ± 0.047	0.721 ± 0.048	0.735 ± 0.049	0.738 ± 0.049	0.755 ± 0.05
C1CCCCCCC1 [cyclooctane] + CCCC[N+]1(C)CCCC1.N#C[B-](C#N)(C#N)C#N	13.5 ± 0.9	12.5 ± 0.9	11.6 ± 0.8	11.2 ± 0.8	10.3 ± 0.7	9.76 ± 0.67
CCCOCCC [dipropyl ether] + CCCC[N+]1(C)CCCC1.N#C[B-](C#N)(C#N)C#N	5.78 ± 0.39	5.65 ± 0.39	5.51 ± 0.38	5.42 ± 0.37	5.33 ± 0.36	5.26 ± 0.36
Cc1ccccc1C [1,2-dimethylbenzene] + CCCC[N+]1(C)CCCC1.N#C[B-](C#N)(C#N)C#N	1.34 ± 0.09	1.36 ± 0.09	1.39 ± 0.09	1.41 ± 0.09	1.43 ± 0.09	1.46 ± 0.1
C#CCCCC [1-hexyne] + CCCC[N+]1(C)CCCC1.N#C[B-](C#N)(C#N)C#N	2.53 ± 0.17	2.56 ± 0.17	2.58 ± 0.18	2.63 ± 0.18	2.63 ± 0.18	2.68 ± 0.18
CCO [ethanol] + CCCC[N+]1(C)CCCC1.N#C[B-](C#N)(C#N)C#N	1.29 ± 0.08	1.17 ± 0.07	1.09 ± 0.07	1.02 ± 0.06	0.95 ± 0.06	0.894 ± 0.057
